Data as given in a melting point compilation (Tetko et al.; mined from patent text by program, amines drawn as free bases though some values may be those of a salt).

Compound	melting point
CCOC(=O)CC(=O)c1ccc(C#N)cc1	64 °C
O=C1Nc2ccc(CN3C(=O)CSC3=O)c(F)c2C1=Cc1cc(CN2CCOCC2)c[nH]1	246 to 248 °C
O=C1Nc2ccccc2N(C(=O)N2CCC(CCCCN3CCCC3)CC2)c2ncccc21	193 to 195 °C
CCOc1ccccc1N(C(=O)C(N)=O)c1nc(N(CC)CC)nc(N(CC)CC)n1	97 to 100 °C
CC(=O)N1CCCSC1=C[N+](=O)[O-]	91 to 92.5 °C
CCCOCCOc1ccccc1COc1ccc2c(c1)C=C(C(=O)Nc1ccc(CN(C)C3CCOCC3)cc1)CCS2(=O)=O	136 to 138 °C
CCOC(=O)/C(=N\OC1CCCCCC1)c1csc(N)n1	107 to 108 °C
Nc1nc2c(s1)CCN(C/C=C\c1cccnc1)CC2	125 to 126 °C
CCCCN(CCCC)Cc1nnc(-c2ncn3c2CN(C)C(=O)c2ccccc2-3)o1	211 to 213 °C
OCC1CCCN1c1cc(N2CCOCC2)nc(-n2c(C(F)F)nc3c(O)cccc32)n1 (configuration not stated)	195 to 198 °C
CC(C)C(OC(=O)NC(C)(Cc1ccccc1)C(=O)NC(CO)c1ccccc1)c1ccccc1 (configuration not stated)	124 to 130 °C
CCOC(=O)c1ccc(N=C(Nc2ccc(C(=O)OCC)cc2)c2ccc(C(C)(C)C)cc2)cc1	212 to 219 °C
CC(C)N(Sc1nc2ccccc2s1)C(C)(C)C	68 to 70 °C
Cc1cc(O)c(C(=O)CCC(F)(F)F)c(=O)o1	104 °C
CS(=O)(=O)NCc1ccc2[nH]cc(CC#N)c2c1	106 to 109 °C

Other lines, results leading:

melting point	Compound
180 to 181 °C	Cc1c(COC(=O)N(c2ccccc2)c2ccccc2)cccc1OCC(=O)O
139 to 140 °C	CC(C)(C)c1cc(C(c2ccc(C#N)cc2)N2CCCCC2)cc(C(C)(C)C)c1O (configuration not stated)
161 to 162 °C	O=C(O)CCc1cn(Cc2ccc(OCc3cncc(-c4ccccc4)c3)cc2)nc1-c1ccccc1
264 to 265 °C	O=C(O)c1ccc(-c2nc(-c3ccccc3C(F)(F)F)co2)cc1
190 to 191 °C	COc1ccc(-n2nnc(-c3ccc(Cl)c(Cl)c3)c2N)cc1
218 to 220 °C	O=C(CNc1cccc(F)c1)Nc1c(Cl)ccc2nc(N3CC[C@@H](O)C3)ccc12
112 to 114 °C	O=[N+]([O-])c1cccc(OCc2csc(-c3ccccc3)n2)c1
115 to 116 °C	CCOc1nn(-c2ccc(C(F)(F)F)cn2)cc1CCCOc1ccc(CCC(=O)O)cc1OCc1ccccc1
115 to 120 °C	COc1ccccc1NC(=O)Nc1nc(Nc2ccccc2-c2ccccc2)nc(N(CCC(=O)O)CCc2c[nH]c3ccccc23)n1
134 °C	Nc1nc(N)c2c(n1)CCC(Cc1ccccc1Cl)C2 (configuration not stated)
128 to 130 °C	COc1ccc(Cn2nnnc2C(O)c2ccccc2Cl)cc1 (racemic)
294 to 295 °C	COc1ccc2[nH]cc(-c3cc4c(OC)ccnc4[nH]3)c2c1
84 to 85 °C	CCOC(=O)c1cc(-c2ccc(Cl)cc2)cnc1C(F)(F)F
233 to 235 °C	CCC(O)c1ccc(Cl)c2nc3n(c12)CCCN3c1ccc(Cl)cc1Cl (configuration not stated)
193 to 196 °C	COc1cccc2c1Cc1c(OC)cccc1C2(CCO)CCO
138 to 140 °C	COc1ccc(CNc2cc(Cl)c(N=CN(C)C)c(Cl)c2)cc1F
180 to 183 °C	O=S(Cc1c(F)cccc1Cl)c1nc2cnccc2[nH]1 (configuration not stated)
194 °C	CCOC(=O)CCc1ccc(NC(=O)c2csc(NC(=O)NCc3ccccc3)n2)cc1
165 to 167 °C	CC(=O)N(C)c1nc(-c2ccccc2)c(-c2ccc(=O)n(C(C)C)n2)s1
215 to 227 °C	c1ccc(-n2c3ccccc3c3cc(-n4ccnc4-c4nccn4-c4ccc5c(c4)c4ccccc4n5-c4ccccn4)ccc32)nc1
86.5 to 87.5 °C	CC(C)n1nc(C(Cl)C(=O)c2ccccc2)ccc1=O (configuration not stated)
284 to 285 °C	COc1cc2c(N)nc(N3CCN(c4nc5cccccc-5n4)CC3)nc2c(OC)c1OC
